Assay results reported in paper PMC6804079, “Investigation of 5’-Norcarbocyclic Nucleoside Analogues as Antiprotozoal and Antibacterial Agents” (Molecules, 2019).
≈ marks a conversion by molar mass, not a printed value. Where “and” joins values, the source holds several entries; their conditions need not be identical. Equal entries are not always repeated.

Assays:
[1] = tested on: T. b. brucei strain Lister 427 (s427-WT); experiment: resazurin EC50 assay, T. b. brucei wild-type bloodstream forms; assay type: cell-based, Trypanosoma brucei brucei; details: 48 h + 24 h resazurin, average and SEM, at least three determinations, NE = no effect on cell viability at 100 µM; for EC50: Trypanosoma brucei, 72 h
T. brucei B48 = experiment: microbe, parasite or virus in culture; assay type: cell-based, Trypanosoma brucei brucei; details: for EC50: Trypanosoma brucei, read-out: T. Brucei, EC50, B48
T. brucei 2T1 PYR6-5 −/− = experiment: microbe, parasite or virus in culture; assay type: cell-based, Trypanosoma brucei brucei; details: Trypanosoma brucei, read-out: T. Brucei, EC50, 2T1 PYR6-5 −/−
Tbb-5FURes = experiment: microbe, parasite or virus in culture; assay type: cell-based, Trypanosoma brucei brucei; details: Trypanosoma brucei, read-out: T. Brucei, EC50, Tbb-5FURes
U-937 cells = experiment: U-937 cytotoxicity (XTT); assay type: cell-based; details: 6 days incubation
Experimental: The U-937 cells used in the cytotoxicity evaluation were obtained from the AIDS Research and Reference Program. The cells were cultured as indicated by the supplier in RPMI-1640 supplemented with 10% heat inactivated FBS, 1% penicillin/streptomycin solution, and 1% L-glutamine.
U-937 cells plated at 2.5 × 10^3 cells/well in a volume of 100 µL were incubated with serially diluted test compounds in a volume of 100 µL for 6 days at 37 °C/5% CO2. Following the incubation, the cells were stained by adding 50 μL tetrazolium dye XTT (Sigma) solution at 5 mg/mL to determine cellular viability and read at 460/650 nm on a spectrophotometer. Toxicity values were calculated using linear regression analysis.

[2] = tested on: M. tuberculosis ATCC 25,177 (H37Ra); experiment: microbe, parasite or virus in culture; assay type: cell-based, Mycobacterium tuberculosis; details: for MIC: Mycobacterium tuberculosis, read-out: M. Tuberculosis 25,177 MIC
M. tuberculosis H37Rv = experiment: microbe, parasite or virus in culture; assay type: cell-based; details: Mycobacterium tuberculosis, control drugs at critical concentrations
M. smegmatis 700,084 = assay type: cell-based, Mycobacterium smegmatis; details: tested up to 250 µM
[3] = tested on: L. mexicana 5FURes (Lmex5FURes); experiment: microbe, parasite or virus in culture; details: Leishmania mexicana, read-out: L. Mexicana 5FUR, EC50
Experimental: Promastigotes of Leishmania mexicana strain MNY/BZ/62/M379 was cultured in a minimal essential medium, HO-MEMO-MEME, supplemented with 10% FBS and 1% of a penicillin/streptomycin solution (Gibco) as described previously [39] at 25 °C. The L. mexicana 5FURes strain was the same strain but adapted in vitro to high levels of 5FU exactly as described for T. brucei [12].
The resazurin assay for L. mexicana promastigotes was performed exactly as for T. b. brucei, except that incubation times of 72 and 48 h were used before and after the addition of resazurin, respectively, due to the slower metabolism of the dye by Leishmania promastigotes [42].

T. vaginalis strain G3 = experiment: resorufin-based EC50 assay, T. vaginalis; details: Trichomonas vaginalis, read-out: Trichomonas Vaginalis, EC50
Experimental: The standard metronidazole-susceptible T. vaginalis strain G3was originally obtained from Jeremy Mottram (University of York, UK) and cultured in a modification of Diamond′s medium supplemented with 10% horse serum with a composition as described [40] at 37 °C under anaerobic conditions. Cultures were passaged daily.
Drugs were tested on T. vaginalis using a resorufin-based assay that we developed [40, 43]. The assay is based on the principle that live T. vaginalis trophozoites are, almost uniquely, able to reduce fluorescent, pink resorufin to non-fluorescent, colorless dihydro-resorufin. This conversion was measured as a dose-dependent increase in fluorescence (with dead cells unable to metabolize the fluorophore; λexc 544 nm, λem 599 nm), resulting in a sigmoid curve with variable slope that yielded EC50 values (Prism 6.0). Plates contained 11 doubling dilutions (1 row) and no-drug control for each compound starting at 100 µM under anaerobic conditions as described [40, 43]. Fluorescence was determined in a PheraStar plate reader (BMG Labtech).

[4] = tested on: Staphylococcus aureus NRS384; experiment: microbe, parasite or virus in culture; assay type: cell-based; details: NRS384, read-out: extrapolated IC50, growth of S. aureus NRS384
M. tuberculosis MS-115 = experiment: microbe, parasite or virus in culture; assay type: cell-based; details: Mycobacterium tuberculosis, MS115, read-out: M. Tuberculosis MS-115 MIC

| Compound | EC50 [1] [µM] | EC50 (T. brucei B48) [µM] | EC50 (T. brucei 2T1 PYR6-5 −/−) [µM] | EC50 (Tbb-5FURes) [µM] | U-937 Cells TC50 (U-937 cells) [µM] | MIC [2] | MIC (M. tuberculosis H37Rv) [µg/mL] | concentration completely inhibiting growth of M. smegmatis (M. smegmatis 700,084) [µM] | EC50 [3] [µM] | EC50 (T. vaginalis strain G3) [µM] | U-937 Cells TC50 (U-937 cells; positive control) [µg/mL] | U-937 Cells TC50 (U-937 cells; positive control, listed as Nonoxynol-9) | T. Brucei, EC50, S427-WT [1] | IC50 [4] [µM] | MIC (M. tuberculosis MS-115) [µg/mL] | fold resistance, B48 versus wild-type (T. brucei B48; higher EC50 against multi-drug resistant strain B48) [fold] | M. Tuberculosis 25,177 MIC [2] |
| --- | --- | --- | --- | --- | --- | --- | --- | --- | --- | --- | --- | --- | --- | --- | --- | --- | --- |
| CC(C)(C)c1ccc(C#Cc2cn([C@H]3C=C[C@@H](O)C3)c(=O)n([C@H]3C=C[C@@H](O)C3)c2=O)cc1 [Compound 7, 1-[4′-Hydroxy-2′-cyclopenten-1′-yl]-3-(4′′-hydroxy-2′′-cyclopent-en-1′′-yl)-5-(4-tertbutylphenynylethenyl)uracil] | ~8 | 10.8 ± 0.6 | 14.7 ± 0.4 | 12.6 ± 1.4 | 22.5 | 62.5 µM and 27 µg/mL | > 50 | 250 | 45.3 ± 2.2 | 52.8 ± 0.007 | – | – | – | – | – | – | – |
| CCCCCCCCCc1ccc(OCCOCCOCCOCCOCCOCCOCCOCCOCCO)cc1 [Compound N9, Nonoxynol-9, reference compound] | – | – | – | – | – | – | – | – | – | – | 6.5 | toxic at the expected concentration | – | – | – | – | – |
| CCCCCc1ccc(C#Cc2cn([C@H]3C=C[C@@H](O)C3)c(=O)n([C@H]3C=C[C@@H](O)C3)c2=O)cc1 [Compound 8] | ~8 | 11 ± 0.6 | 15.4 ± 0.7 | 12 ± 1.2 | 17.3 | 31 µM and 13.9 µg/mL | > 50 | 250 | 27.5 ± 2.3 | 36.9 ± 0.18 | – | – | – | – | – | – | – |
| O=C(NCC#Cc1cn([C@H]2C=C[C@@H](O)C2)c(=O)n([C@H]2C=C[C@@H](O)C2)c1=O)C(F)(F)F [Compound 10, 1-[4′-Hydroxy-2′-cyclopenten-1′-yl]-3-(4′′-hydroxy-2′′-cyclopent-en-1′′-yl)-5-(trifluoroacetamidepropynyl)uracil] | > 100 | > 100 | > 100 | > 100 | 78.0 | > 1000 µM and > 425 µg/mL | – | – | > 100 | 69.2 ± 0.05 | – | – | little or no activity at the highest concentration tested | ~100 | – | – | – |
| Cc1ncc([N+](=O)[O-])n1CCO [Metronidazole, reference compound] | – | – | – | – | – | – | – | – | – | 0.53 ± 0.1 | – | – | – | – | – | – | – |
| CCCCCCCCC#Cc1cn([C@H]2C=C[C@@H](O)C2)c(=O)n([C@H]2C=C[C@@H](O)C2)c1=O [Compound 3, 1-[4′-Hydroxy-2′-cyclopenten-1′-yl]-3-(4′′-hydroxy-2′′-cyclopent-en-1′′-yl)-5-decynyluracil] | ~13 | 14.7 ± 0.2 | 17.1 ± 1.2 | 19.9 ± 0.7 | 2.2 | 31 µM and 12.8 µg/mL | 50 (≈ 121 µM) | – | 25.8 ± 0.4 | 32 ± 0.001 | – | – | – | – | 50 (≈ 121 µM) | – | – |
| N=C(N)c1ccc(OCCCCCOc2ccc(C(=N)N)cc2)cc1 [Pentamidine, reference compound] | 0.0032 ± 0.0004 | 0.71 ± 0.03 | 0.0031 ± 0.0004 | 0.0034 ± 0.0004 | – | – | – | – | 1.63 ± 0.18 | – | – | – | – | – | – | 219 | – |
| CCCC#Cc1cn([C@H]2C=C[C@@H](O)C2)c(=O)n([C@H]2C=C[C@@H](O)C2)c1=O [Compound 5, 1-[4′-Hydroxy-2′-cyclopenten-1′-yl]-3-(4′′-hydroxy-2′′-cyclopent-en-1′′-yl)-5-pentynyluracil] | > 100 | > 100 | > 100 | > 100 | 88.5 | > 1000 µM and > 342 µg/mL | – | – | > 100 | 73.5 ± 0.08 | – | – | – | – | – | – | – |
| CCOC(=O)C#Cc1cn([C@H]2C=C[C@@H](O)C2)c(=O)n([C@H]2C=C[C@@H](O)C2)c1=O [Compound 11, 1-[4′-Hydroxy-2′-cyclopenten-1′-yl]-3-(4′′-hydroxy-2′′-cyclopent-en-1′′-yl)-5-(ethyloxycarbonylpropynyl)uracil] | > 100 | > 100 | > 100 | > 100 | 21.6 | 1000 µM and 372 µg/mL | – | – | > 100 | 53.8 ± 0.74 | – | – | little or no activity at the highest concentration tested | ~100 | – | – | – |
| CCCCCCC#Cc1cn([C@H]2C=C[C@@H](O)C2)c(=O)n([C@H]2C=C[C@@H](O)C2)c1=O [Compound 4, 1-[4′-Hydroxy-2′-cyclopenten-1′-yl]-3-(4′′-hydroxy-2′′-cyclopent-en-1′′-yl)-5-octynyluracil] | ~13 | 17.7 ± 1 | 17.5 ± 1.2 | 24.9 ± 0.5 | 73.8 | 31 µM and 11.9 µg/mL | > 50 | – | 47.3 ± 0.4 | 54.1 ± 0.002 | – | – | – | – | – | – | – |
| CCCCCCCCCCC#Cc1cn([C@H]2C=C[C@@H](O)C2)c(=O)n([C@H]2C=C[C@@H](O)C2)c1=O [Compound 2, 1-[4′-Hydroxy-2′-cyclopenten-1′-yl]-3-(4′′-hydroxy-2′′-cyclopent-en-1′′-yl)-5-dodecynyluracil] | 3.1 | 4 ± 0.4 | 5.5 ± 0.5 | 5.2 ± 0.6 | 22.1 | 31 µM and 13.6 µg/mL | > 50 | – | 51.1 ± 0.6 | 48.9 ± 0.05 | – | – | – | – | – | – | – |
| NNC(=O)c1ccncc1 [Isoniazid, reference compound] | – | – | – | – | – | – | 0.1 (≈ 0.729 µM) | – | – | – | – | – | – | – | > 100 | – | – |
| C[C@H]1COc2c(N3CCN(C)CC3)c(F)cc3c(=O)c(C(=O)O)cn1c23 [Levofloxacin, reference compound] | – | – | – | – | – | – | 1.5 (≈ 4.15 µM) | – | – | – | – | – | – | – | 1.5 (≈ 4.15 µM) | – | – |
| O=c1c(C#Cc2ccccc2)cn([C@H]2C=C[C@@H](O)C2)c(=O)n1[C@H]1C=C[C@@H](O)C1 [Compound 6] | > 100 | > 100 | > 100 | > 100 | 166.2 | 500 µM and 188 µg/mL | – | – | > 100 | 70.2 ± 0.06 | – | – | – | – | – | – | – |
| CO[C@H]1/C=C/O[C@@]2(C)Oc3c(C)c(O)c4c(O)c(c(/C=N/N5CCN(C)CC5)c(O)c4c3C2=O)NC(=O)/C(C)=C\C=C\[C@H](C)[C@H](O)[C@@H](C)[C@@H](O)[C@@H](C)[C@H](OC(C)=O)[C@@H]1C [Rifampicin, reference compound] | – | – | – | – | – | 0.19 µM and 0.16 µg/mL | 1 (≈ 1.22 µM) | – | – | – | – | – | – | – | > 50 | – | – |
| NC[C@H]1O[C@H](O[C@H]2[C@H](O)[C@@H](O[C@H]3O[C@H](CO)[C@@H](O)[C@H](N)[C@H]3O)[C@H](N)C[C@@H]2N)[C@H](O)[C@@H](O)[C@@H]1O [Kanamycin, reference compound] | – | – | – | – | – | – | – | – | – | – | – | – | – | – | – | – | 6.5 µM and 3.13 µg/mL |
